Legend:
M. smegmatis 607 (ATCC) = assay: agar-disk diffusion assay, zone of inhibition; type: cell-based, Mycobacterium smegmatis; details: HPLC fractions of methylene chloride extract; 6 mm disc; control 10 micrograms streptomycin
[1] = tested on: M. tuberculosis 27294 (a streptomycin sensitive strain, ATCC); assay: BACTEC-460 growth inhibition (growth index, 14CO2); type: cell-based, Mycobacterium tuberculosis; details: positive control, 50 μg/ml
E-Coli 25922 = assay: zone of inhibition against E. coli; type: cell-based, Escherichia coli; details: HPLC fractions of methylene chloride extract; 6 mm disc; control 10 micrograms streptomycin
Procedure: An HPLC separation and isolation of an active fraction was attempted. High Pressure Liquid Chromatography (HPLC) was performed using a Discovery RP-Amide C-16 Column, 15 cm long, 4.6 mm wide (Supelco, Bellefort, Pa.). An isocratic, i.e. steady concentration, of a polar solvent phase was used. The solvent phase consisted of dilute phosphoric acid in methanol. The flow rate was 2 ml/minute. Therefore exit is dependent on MW (larger MW exists later) and polarity. The more polar the compound, the quicker it solubilizes into the solvent, but it is retained longer in the static phase of the column which holds back the more polar compounds. The fractions were monitored by UV, at 254 nm wave-length. One to three fraction per plant extract were collected at the indicated times. […] See, for example, FIGS. 1-3. Based on consideration of the relative polarity and molecular weights of the compounds identified for the respective plants in the total methylene chloride extract, the compounds in the right-most column of table 5 “Additional Compounds” lists compounds which are not observed in the active fraction of the extract of the respective plants, but which are likely to be present in smaller quantities (“trace amounts”) in the active fraction and which might contribute to the anti-mycobacterial activity.

## [H]/N=C(/N)N[C@H]1[C@H](O)[C@@H](O)[C@H](O[C@@H]2O[C@@H](C)[C@](O)(C=O)[C@H]2O[C@@H]2O[C@@H](CO)[C@H](O)[C@@H](O)[C@@H]2NC)[C@@H](N/C(N)=N\[H])[C@@H]1O [Streptomycin]
M. smegmatis 607 (ATCC)
  M. Smegmatis ATCC 607 ZOI (mm): 17 mm
[1]
  Δ G1 (growth index change): Positive control Streptomycin (50 μg/ml) resulting in a Δ G1 of −2.8
E-Coli 25922
  E-Coli 25922 ZOI (mm): 14 mm

Source: US7641919B2, “Anti-bacterial plant compositions” (priority 2001, dated 2010)
